Test results reported in patent US20200339537A1, “NOVEL COMPOUND AS INHIBITOR AGAINST BINDING OF PF34 PROTEIN TO NEDD4-1 PROTEIN AND USE THEREOF” (ENHANCEDBIO INC., priority 2017, published 2020).

What was measured:
[1] = target: T1, binding between p34 protein and NEDD4-1 protein (Homo sapiens, UniProt P46934+Q9UHV2); assay: Inhibitory activity on binding between p34 and NEDD4-1, FRET (HTRF) assay; conditions: 1×PBS pH 7.4, 0.1% BSA, 2% DMSO, 384-well; for inhibition at 10 µM: pH 7.4, compound 10 μM; for FRET result (Inhibition % @10 μM): compound 10 μM
T1 construct: FLAG or 6xHis (known only from the detection antibodies)
T1 sequence (P46934 1-1319): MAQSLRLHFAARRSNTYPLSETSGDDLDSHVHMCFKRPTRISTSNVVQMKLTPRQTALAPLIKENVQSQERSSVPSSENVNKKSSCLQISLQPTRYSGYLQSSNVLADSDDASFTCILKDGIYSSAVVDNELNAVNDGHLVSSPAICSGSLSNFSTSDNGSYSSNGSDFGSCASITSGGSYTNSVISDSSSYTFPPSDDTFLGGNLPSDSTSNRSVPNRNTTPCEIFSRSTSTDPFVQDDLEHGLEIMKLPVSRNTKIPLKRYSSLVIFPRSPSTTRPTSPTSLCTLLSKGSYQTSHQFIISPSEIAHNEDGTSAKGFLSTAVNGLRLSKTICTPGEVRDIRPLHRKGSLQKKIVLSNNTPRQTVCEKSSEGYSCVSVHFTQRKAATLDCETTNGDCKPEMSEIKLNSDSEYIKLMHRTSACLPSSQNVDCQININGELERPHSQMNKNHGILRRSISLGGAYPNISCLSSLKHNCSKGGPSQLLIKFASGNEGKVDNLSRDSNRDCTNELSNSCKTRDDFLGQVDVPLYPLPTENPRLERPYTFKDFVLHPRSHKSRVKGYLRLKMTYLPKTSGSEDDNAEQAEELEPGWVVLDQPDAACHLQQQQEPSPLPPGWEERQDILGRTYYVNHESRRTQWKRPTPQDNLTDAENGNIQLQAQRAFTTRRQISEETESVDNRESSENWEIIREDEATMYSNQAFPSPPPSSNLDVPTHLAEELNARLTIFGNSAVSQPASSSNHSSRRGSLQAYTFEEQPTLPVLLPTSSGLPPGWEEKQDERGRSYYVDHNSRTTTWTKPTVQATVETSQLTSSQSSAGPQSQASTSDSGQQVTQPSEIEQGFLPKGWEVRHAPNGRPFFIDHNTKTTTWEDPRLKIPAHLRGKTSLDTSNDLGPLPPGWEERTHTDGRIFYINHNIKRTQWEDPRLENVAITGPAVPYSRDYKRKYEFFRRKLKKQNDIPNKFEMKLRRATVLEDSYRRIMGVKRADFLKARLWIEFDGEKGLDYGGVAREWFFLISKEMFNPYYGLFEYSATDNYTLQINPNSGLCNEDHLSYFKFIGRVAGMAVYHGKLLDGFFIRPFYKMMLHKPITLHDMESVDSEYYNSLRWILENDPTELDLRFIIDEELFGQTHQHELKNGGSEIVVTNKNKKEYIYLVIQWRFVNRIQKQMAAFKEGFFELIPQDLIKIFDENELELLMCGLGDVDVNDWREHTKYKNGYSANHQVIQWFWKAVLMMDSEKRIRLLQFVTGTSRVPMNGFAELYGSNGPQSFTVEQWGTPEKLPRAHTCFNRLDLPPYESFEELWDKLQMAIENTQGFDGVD
T1 sequence (Q9UHV2 1-236): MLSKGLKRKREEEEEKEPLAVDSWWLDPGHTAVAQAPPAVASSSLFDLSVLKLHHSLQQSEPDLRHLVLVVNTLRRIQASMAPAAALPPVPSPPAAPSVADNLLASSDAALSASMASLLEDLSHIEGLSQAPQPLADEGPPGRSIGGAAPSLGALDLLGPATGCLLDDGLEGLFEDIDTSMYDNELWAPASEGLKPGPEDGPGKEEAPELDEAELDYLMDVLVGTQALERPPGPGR
Description: Inhibitory activity of the compound on binding between p34 and NEDD4-1 was evaluated using p34 protein and NEDD4-1 protein based on the HTRF technology developed by Cisbio. In this assay, a fluorescence resonance energy transfer (FRET) signal was measured in the presence of terbium-labeled anti-FLAG antibody and d2-labeled anti-6XHis antibody. Experiments were performed in 384-well plates under a condition of 1×PBS pH 7.4, 0.1% BSA, and 2% DMSO. A background signal was measured in the absence of the p34-NEDD4-1 proteins, and a non-inhibiting signal was measured with addition of only a solvent (2% DMSO). […] Subsequently, inhibitory activity of the compound on p34-NEDD4-1 was calculated in %.

[2] = test system: PTEN (lipid phosphatase activity) in human colon cancer cell line SW620; assay: cells; assay type: cell-based; conditions: compound 5 μM, PTEN immunoprecipitation, diC8-PIP3 substrate, Biomol Green; for fold induction at 5 µM: Homo sapiens, SW-620, 48 h, read-out: PTEN activity (relative fold @5 μM)

Row | inhibition at 10 µM [1] | SMILES | fold induction at 5 µM [2] | also measured
1 | 42.4% | Cc1ccc2nc(C(C)NC(=O)C3CCN(Cc4c[nH]c5ccc(Cl)cc45)CC3)[nH]c2c1 (stereo not shown) [Example 2] |  | 
2 |  | Cc1cc2nc(CNC(=O)C3CCN(Cc4c[nH]c5ccc(Cl)cc45)CC3)[nH]c2cc1C [Example 3] | 1.5 | 
3 |  | CC(NC(=O)C1CCN(Cc2c[nH]c3ccc(Cl)cc23)CC1)c1nc2ccccc2[nH]1 (stereo not shown) [Example 5] | 1.5 | 
4 | 59% | CCC(NC(=O)C1CCN(Cc2c[nH]c3ccc(Cl)cc23)CC1)c1nc2ccccc2[nH]1 (stereo not shown) [Example 7] |  | 
5 |  | O=C(NCc1nc2ccccc2[nH]1)C1CCN(Cc2c[nH]c3ccc(C(F)(F)F)cc23)CC1 [Example 8] |  | FRET result (Inhibition % @10 μM) [1]: 49.4%
6 | 58.4% | O=C(NCc1ncc[nH]1)C1CCN(Cc2c[nH]c3ccc(Cl)cc23)CC1 [Example 9] |  | 
7 | 39% | O=C(NCc1cnccn1)C1CCN(Cc2c[nH]c3ccc(Cl)cc23)CC1 [Example 10] |  | 
8 | 39.1% | O=C(NCc1nccs1)C1CCN(Cc2c[nH]c3ccc(Cl)cc23)CC1 [Example 11] |  | 
9 | 60.4% | O=C(NCc1ncc[nH]1)C1CCN(Cc2ccc3[nH]ccc3c2)CC1 [Example 15] |  | 
10 |  | O=C(NCc1nccs1)C1CCN(Cc2ccc3[nH]ccc3c2)CC1 [Example 19] | 2.5 | FRET result (Inhibition % @10 μM) [1]: 32.1%
11 | 56.6% | O=C(NC(Cc1ccccc1)c1nc2ccccc2[nH]1)C1CCN(Cc2ccc3[nH]ccc3c2)CC1 (stereo not shown) [Example 21] |  | 
12 | 48.1% | O=C(NCc1nc2ccccc2[nH]1)C1CCN(Cc2c[nH]cn2)CC1 [Example 22] |  | 
13 | 38.2% | O=C(NCc1nc2ccccc2[nH]1)C1CCN(Cc2ccc3[nH]ccc3c2)CC1 [Example 23] |  | 
14 | 53% | CCC(NC(=O)C1CCN(Cc2ccc3[nH]ccc3c2)CC1)c1nc2ccccc2[nH]1 (stereo not shown) [Example 24] |  | 
15 | 42% | O=C(NCc1cnccn1)C1CCN(Cc2ccc3[nH]ccc3c2)CC1 [Example 26] |  | 
16 |  | Cn1c(CNC(=O)C2CCN(Cc3ccc4[nH]ccc4c3)CC2)nc2ccccc21 [Example 27] | 1.8 | 
17 | 34.5% | O=C(NCc1nccs1)C1CCN(C(=O)c2ccc3[nH]ccc3c2)CC1 [Example 28] |  | 
18 |  | O=C(NCc1cncs1)C1CN(Cc2c[nH]c3ccc(C(F)(F)F)cc23)C1 [Example 36] | 1.7 | 
19 | 36.6% | O=C(NCc1cnccn1)C1CCN(Cc2c[nH]c3ccc(C(F)(F)F)cc23)CC1 [Example 38] |  | 
20 | 42.8% | Cn1c(CNC(=O)C2CCN(Cc3c[nH]c4ccc(C(F)(F)F)cc34)CC2)nc2ccccc21 [Example 40] |  | 

Row | inhibition at 10 µM [1] | SMILES | fold induction at 5 µM [2] | also measured
21 | 42.8% | O=C(NCc1nc2ccccc2[nH]1)C1CCN(Cc2c[nH]c3ccc(C(F)(F)F)cc23)CC1 [Example 41] |  | 
22 | 42.9% | Cn1c(CNC(=O)C2CCN(Cc3c[nH]c4ccccc34)CC2)nc2ccccc21 [Example 46] |  | 
23 | 30.5% | O=C(NCc1nc2ccccc2[nH]1)C1CCN(Cc2c[nH]c3ccc(F)cc23)CC1 [Example 47] |  | 
24 |  | O=C(NCc1nc2cc(F)c(F)cc2[nH]1)C1CCN(Cc2c[nH]c3ccc(F)cc23)CC1 [Example 48] | 1.6 | 
25 |  | CC(NC(=O)C1CCN(Cc2c[nH]c3ccccc23)CC1)c1nc2ccccc2[nH]1 (stereo not shown) [Example 49] | 1.9 | 
26 |  | CC(NC(=O)C1CCN(Cc2c[nH]c3ccc(F)cc23)CC1)c1nc2ccccc2[nH]1 (stereo not shown) [Example 50] | 2.6 | 
27 | 56.2% | Cn1cc(CN2CCC(C(=O)NCc3nc4ccccc4[nH]3)CC2)c2cc(F)ccc21 [Example 51] |  | 
28 | 32.4% | CN(Cc1nc2ccccc2[nH]1)C(=O)C1CCN(Cc2c[nH]c3ccccc23)CC1 [Example 52] |  | 
29 |  | O=C(NCc1nc2cc(F)c(F)cc2[nH]1)C1CCN(Cc2c[nH]c3ccccc23)CC1 [Example 53] | 1.8 | 
30 | 56.2% | Cc1ccc2nc(C(C)NC(=O)C3CCN(Cc4c[nH]c5ccccc45)CC3)[nH]c2c1 (stereo not shown) [Example 56] |  | 
31 |  | Cn1cc(CN2CCC(C(=O)NCc3nc4ccccc4[nH]3)CC2)c2ccccc21 [Example 59] | 2 | 
32 | 38.4% | O=C(NCc1nc2ccccc2[nH]1)C1CCN(Cc2c[nH]c3cc(F)c(F)cc23)CC1 [Example 60] |  | 
33 | 52.3% | Cn1c(CNC(=O)N2CCN(Cc3c[nH]c4ccc(Cl)cc34)CC2)nc2ccccc21 [Example 63] |  | 
34 | 53.1% | CC(NC(=O)N1CCN(Cc2c[nH]c3ccc(Cl)cc23)CC1)c1nc2ccccc2[nH]1 (stereo not shown) [Example 65] |  | 
35 |  | CN(Cc1nc2ccccc2n1C)C(=O)N1CCN(Cc2c[nH]c3ccc(Cl)cc23)CC1 [Example 69] | 1.6 | 
36 |  | CN(Cc1nc2ccccc2n1C)C(=O)N1CCN(Cc2c[nH]c3ccc(Cl)cc23)CC1 [Example 70] |  | PTEN activity (relative fold @5 μM) ([2]; 48 hours): 2.1 fold
37 | 52.4% | O=C(NCc1nc2ccccc2[nH]1)N1CCN(Cc2c[nH]c3ccc(Cl)cc23)CC1 [Example 75] |  | 
38 |  | O=C(NCc1nccs1)N1CCN(Cc2c[nH]c3ccc(Cl)cc23)CC1 [Example 76] | 1.7 | 
39 |  | Cc1[nH]c2ccc(CN3CCN(C(=O)NCc4nccs4)CC3)cc2c1C [Example 88] | 2.2 | 

Row | SMILES | inhibition at 10 µM [1] | fold induction at 5 µM [2] | also measured
40 | O=C(NCc1nc2cc(Cl)ccc2[nH]1)C1CCN(Cc2c[nH]c3ccc(Cl)cc23)CC1 [Example 4] | 30.6% | 1.8 | 
41 | O=C(NCc1nc2cc(F)ccc2[nH]1)C1CCN(Cc2c[nH]c3ccc(Cl)cc23)CC1 [Example 6] | 36.6% | 3 | 
42 | O=C(NCc1nccs1)C1CCN(Cc2ccc3[nH]ccc3c2)CC1 [Example 12] | 39.2% |  | 
43 | CC(NC(=O)C1CCN(Cc2ccc3[nH]ccc3c2)CC1)c1nc2ccccc2[nH]1 (stereo not shown) [Example 13] | 38.9% | 3.2 | 
44 | O=C(NCc1nc2ccc(F)cc2[nH]1)C1CCN(Cc2ccc3[nH]ccc3c2)CC1 [Example 14] | 44.1% | 3.8 | 
45 | O=C(NCc1nc2cc(F)c(F)cc2[nH]1)C1CCN(Cc2ccc3[nH]ccc3c2)CC1 [Example 16] | 47.2% | 1.5 | 
46 | O=C(C1CCN(Cc2ccc3[nH]ccc3c2)CC1)N1CCn2cc(C(F)(F)F)nc2C1 [Example 17] | 48% | 2.2 | 
47 | O=C(NCc1nc2ccccc2o1)C1CCN(Cc2ccc3[nH]ccc3c2)CC1 [Example 18] | 30% | 2 | 
48 | Cc1ccc2nc(CNC(=O)C3CCN(Cc4ccc5[nH]ccc5c4)CC3)[nH]c2c1 [Example 20] | 51.5% | 1.9 | 
49 | Cc1ccc2[nH]c(C(C)NC(=O)C3CCN(Cc4c[nH]c5ccc(C(F)(F)F)cc45)CC3)nc2c1 (stereo not shown) [Example 29] | 59.1% | 2.2 | 
50 | O=C(C1CCN(Cc2c[nH]c3ccc(C(F)(F)F)cc23)CC1)N1CCn2cc(C(F)(F)F)nc2C1 [Example 30] | 59.1% | 1.5 | 
